Source: ChEMBL document CHEMBL5113530, “Butyrylation Meets Adipogenesis-Probed by a p300-Catalyzed Acylation-Specific Small Molecule Inhibitor: Implication in Anti-obesity Therapy” (J Med Chem, 2022)
Activity calls are given as the source filed them. No cut-off for these calls is given here.

Assays:
Mus musculus [1] = assay: Anti-obesity activity in db/db mouse assessed as inhibition of slc2a4 expression at 50 mg/kg, po qd administered for 30 days by qRT-PCR analysis; type: functional, organism-based; conditions: time 30.0 day
Mus musculus [2] = assay: Anti-obesity activity in db/db mouse assessed as daily food consumption […] at 50 mg/kg, po qd administered for 30 days and measured every week (reference value: 37.8 +/- 1.64 g); type: functional; conditions: time 30 day
Mus musculus [3] = assay: Anti-obesity activity in db/db mouse assessed as inhibition of Pprag-gene expression at 50 mg/kg, po qd administered for 30 days by qRT-PCR analysis; type: functional, organism-based; conditions: time 30.0 day
3T3-L1 [4] = assay: Anti-adipogenic activity against mouse 3T3-L1 cells assessed as upregulation of KDM4C mRNA expression at 25 uM measured after 7 days by qRT-PCR analysis; type: functional, cell-based; conditions: time 7.0 day
3T3-L1 [5] = assay: Anti-adipogenic activity against mouse 3T3-L1 cells assessed as downregulation of ADIPOQ mRNA expression at 25 uM measured after 7 days by qRT-PCR analysis; type: functional, cell-based; conditions: time 7.0 day
3T3-L1 [6] = assay: Anti-adipogenic activity against mouse 3T3-L1 cells assessed as upregulation of TEAD4 mRNA expression at 25 uM measured after 7 days by qRT-PCR analysis; type: functional, cell-based; conditions: time 7.0 day
[7] = Toxicity in male Sprague-Dawley rat assessed as average food intake at 500 mg/kg, po administered as single dose measured on day 1 (Rvb =20.38 g/day); type: organism-based; conditions: in vivo, 24 h, time 1 day
[8] = Toxicity in female Sprague-Dawley rat assessed as average food intake at 500 mg/kg, po administered as single dose measured on day 1 (Rvb =17.84 g/day); type: organism-based; conditions: in vivo, 24 h, time 1 day
[9] = Toxicity in male Sprague-Dawley rat assessed as effect on body weight at 500 mg/kg, po administered as single dose measured on day 7 (reference value: 217.38 +/- 11.38 g); type: organism-based; conditions: in vivo, 168 h, time 7 day
3T3-L1 [10] = assay: Anti-adipogenic activity against mouse 3T3-L1 cells assessed as downregulation of CEBPA mRNA expression at 25 uM measured after 7 days by qRT-PCR analysis; type: functional, cell-based; conditions: time 7.0 day
[11] = Toxicity in female Sprague-Dawley rat assessed as effect on body weight at 1000 mg/kg, po administered as single dose measured on day 14 (Rvb =171.5 +/- 6.65 g); type: organism-based; conditions: in vivo, 336 h, time 14 day
[12] = Toxicity in female Sprague-Dawley rat assessed as average water intake measured per day at 250 mg/kg, po administered as single dose measured on day 7 (Rvb =21 ml/day); type: organism-based; conditions: in vivo, 168 h, time 7 day
[13] = Toxicity in male Sprague-Dawley rat assessed as average food intake at 250 mg/kg, po administered as single dose measured on day 1 (Rvb =20.38 g/day); type: organism-based; conditions: in vivo, 24 h, time 1 day
[14] = Toxicity in male Sprague-Dawley rat assessed as effect on body weight at 1000 mg/kg, po administered as single dose measured on day 7 (reference value: 217.38 +/- 11.38 g); type: organism-based; conditions: in vivo, 168 h, time 7 day
Mus musculus [15] = assay: Anti-obesity activity in db/db mouse assessed as inhibition of lep gene expression at 50 mg/kg, po qd administered for 30 days by qRT-PCR analysis; type: functional, organism-based; conditions: time 30.0 day
[16] = Toxicity in female Sprague-Dawley rat assessed as average water intake measured per day at 1000 mg/kg, po administered as single dose measured on day 1 (Rvb =25 ml/day); type: organism-based; conditions: in vivo, 24 h, time 1 day
[17] = Toxicity in female Sprague-Dawley rat assessed as effect on body weight at 1000 mg/kg, po administered as single dose measured on day 7 (Rvb =169.81 +/- 6.57 g); type: organism-based; conditions: in vivo, 168 h, time 7 day
Mus musculus [18] = assay: Anti-obesity activity in db/db mouse assessed as reduction in adipocyte hypertrophy at 50 mg/kg, po qd administered for 30 days by hematoxylin and eosin staining based assay; type: functional, organism-based; conditions: time 30.0 day
3T3-L1 [19] = assay: Anti-adipogenic activity against mouse 3T3-L1 cells assessed as downregulation of CEBPD mRNA expression at 25 uM measured after 7 days by qRT-PCR analysis; type: functional, cell-based; conditions: time 7.0 day
3T3-L1 [20] = assay: Anti-adipogenic activity against mouse 3T3-L1 cells assessed as downregulation of SLC2A4 mRNA expression at 25 uM measured after 7 days by qRT-PCR analysis; type: functional, cell-based; conditions: time 7.0 day
3T3-L1 [21] = assay: Anti-adipogenic activity against mouse 3T3-L1 cells assessed as downregulation of FABP4 mRNA expression at 25 uM measured after 7 days by qRT-PCR analysis; type: functional, cell-based; conditions: time 7.0 day
3T3-L1 [22] = assay: Cytotoxicity against in mouse 3T3-L1 cells assessed as effect on cellular oxidoreductase activity at 25 uM incubated for 6 days by MTT assay; type: toxicity, cell-based; conditions: 3t3-l1, 144 h, time 6 day
[23] = Toxicity in female Sprague-Dawley rat assessed as average water intake measured per day at 500 mg/kg, po administered as single dose measured on day 7 (Rvb =21 ml/day); type: organism-based; conditions: in vivo, 168 h, time 7 day
[24] = Toxicity in male Sprague-Dawley rat assessed as average food intake at 250 mg/kg, po administered as single dose measured on day 7 (Rvb =20.24 g/day); type: organism-based; conditions: in vivo, 168 h, time 7 day
[25] = Mutagenicity in Salmonella typhimurium TA97a assessed as number of revertants measured per plate at 10 to 1000 incubated for 48 hrs in absence of rat liver S9 fraction by plate incorporation assay; type: toxicity; conditions: salmonella enterica subsp. enterica serovar typhimurium, s9, 48 h, dose 10-1000 µg
3T3-L1 [26] = assay: Anti-adipogenic activity against mouse 3T3-L1 cells at 25 uM incubated for 8 days by Oil Red O staining based spectrophotometric analysis; type: functional, cell-based; conditions: time 8.0 day
[27] = Toxicity in male Sprague-Dawley rat assessed as average water intake measured per day at 500 mg/kg, po administered as single dose measured on day 7 (Rvb =30 ml/day); type: organism-based; conditions: in vivo, 168 h, time 7 day
[28] = Mutagenicity in Salmonella typhimurium TA102 assessed as number of revertants measured per plate at 10 to 1000 incubated for 48 hrs in presence of rat liver S9 fraction by plate incorporation assay; type: toxicity; conditions: salmonella enterica subsp. enterica serovar typhimurium, s9, 48 h, dose 10-1000 µg
[29] = Toxicity in female Sprague-Dawley rat assessed as effect on body weight at 250 mg/kg, po administered as single dose measured on day 1 (Rvb =152.21 +/- 6.58 g); type: organism-based; conditions: in vivo, 24 h, time 1 day
[30] = Toxicity in female Sprague-Dawley rat assessed as average food intake at 500 mg/kg, po administered as single dose measured on day 14 (Rvb =15.95 g/day); type: organism-based; conditions: in vivo, 336 h, time 14 day
Mus musculus [31] = assay: Anti-obesity activity in C57BL6/J mouse model of high fat diet-induced obesity assessed as reduction in epididymal fat pad weight at 50 mg/kg; type: functional, organism-based
[32] = Toxicity in male Sprague-Dawley rat assessed as average water intake measured per day at 1000 mg/kg, po administered as single dose measured on day 7 (Rvb =30 ml/day); type: organism-based; conditions: in vivo, 168 h, time 7 day
[33] = Toxicity in male Sprague-Dawley rat assessed as average food intake at 1000 mg/kg, po administered as single dose measured on day 7 (Rvb =20.24 g/day); type: organism-based; conditions: in vivo, 168 h, time 7 day
[34] = biological target: Histone acetyltransferase p300 (Homo sapiens) (UniProt Q09472); assay: Inhibition of wild-type His-tagged EP300 catalytic domain catalyzed butyrylation (unknown origin) expressed in Escherichia coli BL21 (DE3) using Histone H3 as substrate at 25 uM preincubated with compound for 10 mins followed by butyryl-CoA addition and measured after 10 mins by Western blot analysis; conditions: time 20.0 min
Chain of Histone acetyltransferase p300 (Homo sapiens) (Q09472 whole entry, the tested form may be a part): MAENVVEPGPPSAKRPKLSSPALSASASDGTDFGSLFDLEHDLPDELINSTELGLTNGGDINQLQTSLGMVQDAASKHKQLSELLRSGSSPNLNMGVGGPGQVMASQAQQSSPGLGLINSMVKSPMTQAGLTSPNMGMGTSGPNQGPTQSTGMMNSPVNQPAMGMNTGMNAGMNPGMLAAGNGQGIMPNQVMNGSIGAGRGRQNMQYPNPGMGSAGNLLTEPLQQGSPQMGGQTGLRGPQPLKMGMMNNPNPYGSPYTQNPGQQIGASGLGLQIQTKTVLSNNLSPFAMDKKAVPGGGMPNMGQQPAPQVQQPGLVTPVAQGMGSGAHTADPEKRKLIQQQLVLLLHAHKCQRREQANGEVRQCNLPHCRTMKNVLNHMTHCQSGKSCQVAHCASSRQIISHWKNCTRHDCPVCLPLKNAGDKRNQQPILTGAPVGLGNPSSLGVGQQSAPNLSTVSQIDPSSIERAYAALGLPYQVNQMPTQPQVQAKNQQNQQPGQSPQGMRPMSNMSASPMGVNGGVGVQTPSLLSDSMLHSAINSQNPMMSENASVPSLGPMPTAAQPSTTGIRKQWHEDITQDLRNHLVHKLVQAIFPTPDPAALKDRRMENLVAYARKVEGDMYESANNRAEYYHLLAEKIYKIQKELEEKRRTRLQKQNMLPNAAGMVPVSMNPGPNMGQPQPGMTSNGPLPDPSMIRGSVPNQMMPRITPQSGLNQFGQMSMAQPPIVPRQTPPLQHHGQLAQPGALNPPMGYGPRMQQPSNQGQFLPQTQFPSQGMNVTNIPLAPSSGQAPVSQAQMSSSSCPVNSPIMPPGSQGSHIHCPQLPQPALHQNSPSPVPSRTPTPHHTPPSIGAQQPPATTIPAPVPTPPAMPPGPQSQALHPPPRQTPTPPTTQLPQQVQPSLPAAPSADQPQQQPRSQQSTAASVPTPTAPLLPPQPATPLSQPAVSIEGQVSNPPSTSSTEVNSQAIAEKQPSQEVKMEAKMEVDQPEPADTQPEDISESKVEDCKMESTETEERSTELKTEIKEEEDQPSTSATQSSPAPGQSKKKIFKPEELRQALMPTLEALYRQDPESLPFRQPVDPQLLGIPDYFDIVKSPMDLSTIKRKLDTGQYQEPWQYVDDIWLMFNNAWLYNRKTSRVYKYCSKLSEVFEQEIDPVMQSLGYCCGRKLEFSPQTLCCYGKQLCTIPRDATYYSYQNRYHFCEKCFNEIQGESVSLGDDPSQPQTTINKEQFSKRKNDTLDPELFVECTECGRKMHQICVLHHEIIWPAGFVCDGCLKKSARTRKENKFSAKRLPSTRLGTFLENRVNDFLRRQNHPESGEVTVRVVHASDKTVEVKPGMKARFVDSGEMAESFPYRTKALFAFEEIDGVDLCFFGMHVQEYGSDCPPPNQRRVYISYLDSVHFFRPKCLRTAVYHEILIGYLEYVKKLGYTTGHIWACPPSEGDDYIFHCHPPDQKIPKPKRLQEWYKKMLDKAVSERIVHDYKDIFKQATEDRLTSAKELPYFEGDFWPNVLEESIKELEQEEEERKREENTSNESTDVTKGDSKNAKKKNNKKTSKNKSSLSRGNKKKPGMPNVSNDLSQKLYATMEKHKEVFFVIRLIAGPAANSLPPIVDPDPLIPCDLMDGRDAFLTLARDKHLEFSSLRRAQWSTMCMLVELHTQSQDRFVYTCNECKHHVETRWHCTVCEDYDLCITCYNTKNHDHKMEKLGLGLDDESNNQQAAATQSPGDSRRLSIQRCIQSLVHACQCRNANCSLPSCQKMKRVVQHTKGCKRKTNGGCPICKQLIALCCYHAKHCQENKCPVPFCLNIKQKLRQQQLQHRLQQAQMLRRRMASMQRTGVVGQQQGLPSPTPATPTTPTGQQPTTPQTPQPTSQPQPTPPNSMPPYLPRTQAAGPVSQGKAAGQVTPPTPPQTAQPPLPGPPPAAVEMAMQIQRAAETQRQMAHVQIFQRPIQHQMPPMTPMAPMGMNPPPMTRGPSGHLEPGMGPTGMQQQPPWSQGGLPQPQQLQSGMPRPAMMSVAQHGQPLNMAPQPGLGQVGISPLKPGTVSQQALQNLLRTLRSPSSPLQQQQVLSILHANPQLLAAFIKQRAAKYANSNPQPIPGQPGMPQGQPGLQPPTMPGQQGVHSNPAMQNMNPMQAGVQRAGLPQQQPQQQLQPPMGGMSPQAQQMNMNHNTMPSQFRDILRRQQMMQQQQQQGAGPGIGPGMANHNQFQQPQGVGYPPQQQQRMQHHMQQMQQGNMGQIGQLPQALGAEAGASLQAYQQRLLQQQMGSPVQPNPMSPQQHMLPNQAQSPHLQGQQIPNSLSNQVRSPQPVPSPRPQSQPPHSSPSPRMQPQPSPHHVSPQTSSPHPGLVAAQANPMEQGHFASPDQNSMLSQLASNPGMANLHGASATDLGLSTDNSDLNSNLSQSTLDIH

inhibition [34]: Active
SMILES: COc1ccc(C(=O)C2=C3OC(C)(C)[C@@H](CC=C(C)C)C[C@@]34C[C@@H](CC=C(C)C)C(C)(C)[C@](CC=C(C)C)(C2=O)C4=O)cc1OC
Activity (Mus musculus [1]): Active
Activity (Mus musculus [2]): 34 g
Activity (Mus musculus [3]): Active
Activity (3T3-L1 [4]): Active
Activity (3T3-L1 [5]): Active
Activity (3T3-L1 [6]): Active
Activity [7]: 20.99 g/day
Activity [8]: 18.22 g/day
Activity [9]: 229.75 g
Activity (3T3-L1 [10]): Active
Activity [11]: 179.52 g
Activity [12]: 21 mL
Activity [13]: 20.03 g/day
Activity [14]: 217.65 g
Activity (Mus musculus [15]): Active
Activity [16]: 26 mL
Activity [17]: 178.58 g
Activity (Mus musculus [18]): Active
Activity (3T3-L1 [19]): Active
Activity (3T3-L1 [20]): Active
Activity (3T3-L1 [21]): Active
Activity (3T3-L1 [22]): Non-Toxic
Activity [23]: 23 mL
Activity [24]: 20.79 g/day
Activity [25]: Non-Toxic
Activity (3T3-L1 [26]): Active
Activity [27]: 33 mL
Activity [28]: Non-Toxic
Activity [29]: 151.99 g
Activity [30]: 17.09 g/day
Activity (Mus musculus [31]): Active
Activity [32]: 31 mL
Activity [33]: 20.74 g/day
